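In this assay, cells in 96-well plates receive the compound at five concentrations for 48 hours. Endpoints are linearly interpolated between the surrounding concentrations. TGI marks complete inhibition of growth.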
Key:
Experiment in all cases: NCI tumour cell line growth inhibition, 48 h
[1] = system: OVCAR-8 ovarian
[2] = system: SR leukemia
[3] = system: NCI-H460 lung
[4] = system: SF-539 CNS
[5] = system: KM12 colon
[6] = system: HOP-62 NSCLC
[7] = system: HCT-116 colon
[8] = system: SF-295 CNS
[9] = system: SK-MEL-28 melanoma
[10] = system: NCI-H23 lung
[11] = system: MCF7 breast
[12] = system: COLO 205 colon
[13] = system: MALME-3M melanoma
[14] = system: HCT-15 colon
[15] = system: OVCAR-3 ovarian
[16] = system: UACC-62 melanoma
[17] = system: BT-549 breast
[18] = system: HS 578T breast

Measured: TGI

C/C(=N\NC(=O)c1ccncc1)c1ccccc1F
not listed: [16] | [17] | [18]
> 10 µM: all other assays above

Cc1ccc(C2=C(C#N)C(=O)N3CCN=C3S2)cc1
not listed: [6] | [18]
> 100 µM: all other assays above

COC(=O)C1(C(=O)OC)Cc2ccc(C)cc2C2=C1C(=O)c1ccccc1C2=O
87.5 µM: [13]
36.1 µM: [8]
46.1 µM: [10]
59.6 µM: [5]
29 µM: [6]
61.8 µM: [4]
> 100 µM: [2] | [3] | [18]
35.8 µM: [16]
35.7 µM: [11]
14.9 µM: [15]
30.1 µM: [14]
40.3 µM: [7]
32.5 µM: [9]
34.6 µM: [1]

COC(=O)NN=C1C(C)(C)C(=O)C1(C)C
not listed: [2] | [11] | [14] | [17] | [18]
> 100 µM: all other assays above

CC(=O)N1C(NN(C)C)CCN1c1ccccc1 (centres undefined)
not listed: [3] | [4] | [7] | [15] | [17] | [18]
> 10 µM: all other assays above

NC(CCC(=O)NC(CSC(=O)N(O)c1ccccc1)C(=O)NCC(=O)O)C(=O)O (centres undefined)
not listed: [11] | [17] | [18]
> 1000 µM: all other assays above

Cc1ccc(N(C(=O)Nc2ccc(F)c(Cl)c2)C2=NCC(C)S2)cc1 (centres undefined)
32.6 µM: [11]
not listed: [16] | [17]
> 100 µM: all other assays above

Cc1c2c(Cl)c3c(c(Cl)c2c(C)c2c(Cl)c4c(c(Cl)c12)C(c1ccccc1)(c1ccccc1)C4(c1ccccc1)c1ccccc1)C(c1ccccc1)(c1ccccc1)C3(c1ccccc1)c1ccccc1
not listed: [18]
> 100 µM: all other assays above

CSc1sc(=S)sc1C(=O)N(C)c1ccccc1
not listed: [11] | [17] | [18]
> 100 µM: all other assays above

CC(=O)N(C(C)=O)n1c(-c2ccccc2)n[nH]c1=O
not listed: [3] | [13] | [18]
> 100 µM: all other assays above

COC(=O)NC12CC3CC(CC(F)(C3)C1)C2
not listed: [2] | [8] | [11] | [14] | [17] | [18]
> 100 µM: all other assays above

Cn1ccc2c(C(=O)c3ccccc3)cccc2c1=O
93.7 µM: [6]
66.9 µM: [8]
not listed: [10] | [11] | [17] | [18]
> 100 µM: all other assays above

COc1ccc2c(c1)Oc1cc(O)ccc1[C@@H]2c1ccccc1C(=O)NC(C)c1ccccc1 (some centres undefined)
35.5 µM: [10]
33.9 µM: [5]
24.8 µM: [7]
28.2 µM: [16]
35.8 µM: [6]
31 µM: [4]
27.4 µM: [3]
34.6 µM: [14]
34.5 µM: [15]
28.6 µM: [8]
46.7 µM: [1]
32.9 µM: [12]
31.3 µM: [9] | [13]

O=C(c1ccccc1)[C@@H]1C[C@H](Sc2ccccc2)c2cc(Cl)ccc2N1
68.4 µM: [7]
33.5 µM: [4]
52.2 µM: [15]
58.9 µM: [9]
64.2 µM: [10]
92.5 µM: [8]
51.6 µM: [16]
66.8 µM: [1]
91.6 µM: [3]
not listed: [11] | [17] | [18]
> 100 µM: all other assays above

CN(C(=O)C1CCCCCC1=O)c1ccccc1Cl (centres undefined)
not listed: [2] | [11] | [16] | [18]
> 100 µM: all other assays above

O=C(O)CCc1cccc2c1oc1c(CCC(=O)O)cccc12
not listed: [6] | [11] | [17] | [18]
> 100 µM: all other assays above

COc1ccc(/C=C2\N=C(SC)N(CN3CCCCC3)C2=O)cc1
not listed: [3] | [4] | [17]
> 100 µM: all other assays above

CC(O)c1ccc[n+](Cc2ccccc2)c1 (centres undefined)
not listed: [11] | [17] | [18]
> 400 µM: all other assays above

N#CCCN(c1ccc(C=Nc2ccccc2Cl)cc1)S(=O)(=O)c1ccccc1
not listed: [11] | [17] | [18]
> 100 µM: all other assays above

CC1=NN(C(=O)CC(=O)NC(=O)CC(=O)Nc2ccccc2F)C(=O)C1N=Nc1ccc([N+](=O)[O-])cc1 (centres undefined)
69.2 µM: [12]
35.5 µM: [7]
81.3 µM: [15]
not listed: [2] | [11] | [17] | [18]
> 100 µM: all other assays above

COc1ccc(N2C(=O)C3c4[nH]c5ccccc5c4C4CC(C)CC(C)C4C3C2=O)cc1 (centres undefined)
not listed: [3] | [5] | [11] | [15] | [17] | [18]
> 100 µM: all other assays above

COCn1cnc2c(=O)n(-c3ccc(OC)cc3)c(=S)n(-c3ccc(OC)cc3)c21
not listed: [13] | [18]
> 100 µM: all other assays above

CCCCCCCCCCCCCCCCOCC(CP(=O)([O-])OCC[n+]1ccccc1)OC (centres undefined)
28.4 µM: [4]
14.8 µM: [10]
32.2 µM: [9]
20.5 µM: [12]
24.5 µM: [16]
22.1 µM: [7]
27.1 µM: [15]
5.62 µM: [5]
25.2 µM: [6]
32.8 µM: [13]
15.3 µM: [2]
15.4 µM: [8]
30 µM: [1]

NC(=S)N/N=C1/CCCC2CCCC[C@@H]12 (some centres undefined)
not listed: [7] | [17]
> 100 µM: all other assays above

— PubChem BioAssay (NCI)
